In PubChem BioAssay AID1996:
Values after ≈ are worked out from the molar mass of the structure shown.

details: buffer; pH 7.4; 200.0 µM

SMILES | solubility kinetic [mg/mL]
CCC(C)(C)NC(=O)CN(C(=O)c1ccc(N2CCCC2)nc1)c1ccc(F)cc1 | 0.0607 (≈ 147 µM)
COc1ccc(CCNC(=O)COc2ccc(C)nc2[N+](=O)[O-])cc1 | > 0.0518
CNCCc1ccccc1 | < 0.0003
CCc1ccccc1NC(=O)CC(=O)Nc1ccccc1CC | > 0.0466
O=[N+]([O-])c1ccc(CSc2nc3ncc(Br)cc3[nH]2)cc1 | 0.0013 (≈ 3.56 µM)
CN(C)c1cccc(C(=O)OCC(=O)c2ccc[nH]2)c1 | > 0.0408
CC(=O)NCCc1ccc(C(=O)COC(=O)c2cc(C)oc2C)cc1 | > 0.0515
Clc1cccc(CN2CCSCC2)c1Cl | 0.001 (≈ 3.81 µM)
O=C(Oc1ccc(Br)cc1)c1cccnc1 | 0.0343 (≈ 123 µM)
Cn1c(=O)[nH]c(=O)c2c1nc1n2CCS1 | 0.031 (≈ 138 µM)
O=C(O)CNC1c2ccccc2CSc2ccccc21 (centres undefined) | > 0.0428
CCn1c(C)nc2cc(C#N)ccc21 | > 0.0278
COc1ccc(CC(=O)Nc2ccc(N3CCCC3)c(C)c2)cc1 | 0.0089 (≈ 27.4 µM)
CCCS(=O)(=O)Nc1cccc(-c2cn3c(n2)SCC3)c1 | > 0.0485
CC1=Nc2ccccc2N=C(NC(=O)/C=C/C(=O)O)C1c1ccccc1 (centres undefined) | > 0.0521
NS(=O)(=O)c1ccc(CCNC(=O)CN2CCCCC2)cc1 | 0.0454 (≈ 140 µM)
CCCOCc1ccc(O)c2ncccc12 | 0.0196 (≈ 90.2 µM)
Cc1cccc(NC(=O)CCCc2ccccc2)c1C | < 0.0006
COc1ccc(-c2nc3ccccc3c(=O)[nH]2)cc1 | 0.0022 (≈ 8.72 µM)
O=C1OCCC1Sc1nnc(-c2ccc3c(c2)OCO3)o1 (centres undefined) | > 0.0459
ONC(=Nc1cccc(C(F)(F)F)c1)c1cccnc1 | > 0.0422
O=S(=O)(/N=C/c1c(O)ccc2ccccc12)c1ccccc1 | > 0.0467
Cc1cc(C)c(C)c(S(=O)(=O)NCCCN2CCOCC2)c1C | > 0.0511

SMILES | solubility kinetic [mg/mL]
N#C/C(=C\c1ccccc1)C(=O)NC1CC1 | > 0.0318
COc1ccc2c(-c3ccccc3)cc(=S)[nH]c2c1 | 0.0024 (≈ 8.98 µM)
CCCC(=O)NCc1ccncc1 | > 0.0267
COCCN1CN=C(NS(=O)(=O)c2ccc(C)cc2)NC1 | > 0.0469
N/C(=N\OC(=O)c1cccs1)c1cccnc1 | 0.0331 (≈ 134 µM)
Cc1cccc(NC(=O)c2cccnc2Oc2ccccc2)c1C(=O)O | > 0.0523
CC(NC(=O)CCC(=O)c1ccccc1)c1ccc(F)cc1 (centres undefined) | > 0.0449
Cc1cc2ncn(CS(C)(=O)=O)c2cc1C | 0.0343 (≈ 144 µM)
CCOC(=O)/C=C1/N(C)c2ccccc2C1(C)C | < 0.0005
Cc1cc(C)nc(N2CCC(C(=O)NCc3ccccc3F)CC2)n1 | 0.0003 (≈ 0.876 µM)
CCOCc1c(C(=O)NC2CCCCCC2)oc2ccccc12 | 0.0009 (≈ 2.85 µM)
O=S(=O)(/N=C(\[O-])C[n+]1ccccc1)c1ccc(Cl)cc1 | > 0.0466
O=[N+]([O-])c1cc(Cl)ccc1NCCc1ccccn1 | 0.0287 (≈ 103 µM)
CCCCCOc1ccc(C(=O)CCN2CCOCC2)cc1.Cl | 0.0349
COc1ccc(C)cc1S(=O)(=O)NC(C)C(=O)NC1CC1 (centres undefined) | > 0.0469
Cc1cccc(OCCC(=O)Nc2ccccc2C(N)=O)c1 | 0.0442 (≈ 148 µM)
Cc1cc(C)c(C(=O)Nn2c(C)nc3ccccc3c2=O)cc1C | > 0.0482
COc1ccccc1S(=O)(=O)N1CCNC(=O)C1 | > 0.0405
C=Cn1cc[n+](CC(=O)c2ccc(Cl)cc2)c1.[Br-] | 0.0433
COc1ccc(C(C)NC(=O)Cc2cccs2)cc1OC (centres undefined) | > 0.0458
CCOC(=O)C1CCCN(CCC(=O)Nc2cc(C)cc(C)c2)C1 (centres undefined) | > 0.0499
CCN(CC)C(=O)c1cccc(C)c1 | 0.0196 (≈ 102 µM)
COc1ccc(NC(=O)NCc2ccc(Cl)cc2)cc1 | 0.0003 (≈ 1.03 µM)

SMILES | solubility kinetic [mg/mL]
O=C1CCC(C(=O)Nc2cccc(Br)c2)N1 (centres undefined) | > 0.0425
Cc1ccc(C(=O)OCC(=O)NCCN2C(=O)CSC2=O)cc1[N+](=O)[O-] | > 0.0572
CN1CCC(N(C)C(=O)c2cc(S(=O)(=O)N(C)c3ccccc3)ccc2Cl)CC1.Cl | > 0.0709
Cc1cc(C)cc(NS(=O)(=O)c2ccc3[nH]c(=O)ccc3c2)c1 | 0.0015 (≈ 4.57 µM)
CCOc1cc(C2NC(=O)NC2=O)ccc1O (centres undefined) | > 0.0354
CC1CC(=O)N(c2ccc(C(C)C)cc2)C(=O)C1 | 0.035 (≈ 143 µM)
COc1cc(OC)c(OC)cc1CNCc1ccco1 | 0.0387 (≈ 140 µM)
CC(=O)c1ccc(NC(=O)COC(=O)C2CC3C=CC2C3)cc1 (centres undefined) | > 0.047
Nc1ccc(CCNc2ncnc3c2ncn3[C@@H]2O[C@H](CO)[C@@H](O)[C@H]2O)cc1 | > 0.058
Cc1c(F)cccc1NC(=O)CCCCCC1NC(=O)NC1C (centres undefined) | 0.0467 (≈ 145 µM)
CC(=O)c1cccc(NC(=S)NCc2ccccc2)c1 | 0.0064 (≈ 22.5 µM)
Cc1cccc(OC(C)C(=O)N2CCc3ccccc3C2)c1 (centres undefined) | 0.036 (≈ 122 µM)
Cc1ccc(C)c(NC(=O)C[n+]2ccccc2)c1.[Cl-] | 0.0408
COc1ccc(C(C)NC(=O)Cc2cccs2)cc1 (centres undefined) | 0.0371 (≈ 135 µM)
CC(C)(C)c1ccc(/C=C/C(=O)NCCCN2CCOCC2)cc1 | 0.0323 (≈ 97.7 µM)
Cc1cc(NC(=O)CSc2nc(C)c(C)n2CC(C)C)no1 | > 0.0484
O=C(Cc1ccc(Cl)cc1)Nc1ncccn1 | > 0.0372
CCCCN1C(=O)CC(Sc2ncccc2C(=O)O)C1=O (centres undefined) | 0.0399 (≈ 129 µM)
CC12CC(O)C3c4ccc(O)cc4CCC3C1CC/C2=N\O (centres undefined) | > 0.0452
COc1ccc(NC(=O)c2ccc(NC(=O)C3CC3)cc2)cc1 | < 0.0003
CN(C(=O)c1ccc(Br)o1)C1CCCCC1 | 0.0322 (≈ 113 µM)
S=C(Nc1cc(Cl)cc(Cl)c1)N1CCCC1 | 0.003 (≈ 10.9 µM)
CSc1ccccc1NC(=O)c1ccccc1C | 0.0309 (≈ 120 µM)

SMILES | solubility kinetic [mg/mL]
CCN1CCN(C2CC(=O)NC2=O)CC1 (centres undefined) | > 0.0317
CN(C)C1(CNC(=O)Cc2ccccc2F)CCCCC1 | 0.0422 (≈ 144 µM)
O=C(CN1CCCCCCC1)NC(=O)NC1CCCCC1 | 0.0302 (≈ 102 µM)
CCC1CN(C(=O)NCc2cccc(OC)c2)c2ccccc2O1 (centres undefined) | 0.0433 (≈ 133 µM)
COc1ccc(OC)c(/C=C/C(=O)NCCc2nc3ccccc3[nH]2)c1 | 0.0464 (≈ 132 µM)
CC(CCc1ccccc1)NC(=O)CN1CCSc2ccccc21 (centres undefined) | 0.0201 (≈ 59 µM)
O=S(=O)(c1ccc(F)cc1)N1CCCC1c1cccnc1 (centres undefined) | > 0.046
NC(=O)COC(=O)c1ccc(-c2ccc(O)cc2)cc1 | 0.0011 (≈ 4.05 µM)
COc1ccc(C2(CNC(=O)c3ccccc3)CCCC2)cc1OC | 0.0082 (≈ 24.2 µM)
Cc1ccc(F)cc1NC(=O)N1CCCN(C(=O)OC(C)(C)C)CC1 | 0.0469 (≈ 133 µM)
Cc1nc(SCC(=O)N2CCOCC2)c2c(=O)n(C)c(=O)n(CC(C)C)c2n1 | 0.0478 (≈ 117 µM)
CCN(C(=O)C(C)Sc1nnc(-c2ccncc2)n1C)C1CCCCC1 (centres undefined) | > 0.056
CCSC(=O)NC1CCCCC1 | 0.0144 (≈ 76.9 µM)
COc1ccc(NC(=O)c2sccc2C)cn1 | > 0.0372
O=C(O)Cn1c(O)c(C2=c3ccccc3=NC2=O)sc1=O | 0.0394 (≈ 129 µM)
O=C(Cc1ccc([N+](=O)[O-])cc1)OCc1c(F)cccc1Cl | < 0.0007
Cc1ccc(-c2ccc(S(=O)(=O)N3CC(C)OC(C)C3)cc2)cc1 (centres undefined) | < 0.0007
Cc1ccc(NC(=O)Nc2cccc3ccccc23)cc1 | < 0.0003
COC(=O)CSc1nc2sc3c(c2c(=O)[nH]1)CCC3 | 0.0157 (≈ 53 µM)
Cc1cc([N+](=O)[O-])c2c(c1C)C1C=CCC1C(c1ccccn1)N2 (centres undefined) | 0.0093 (≈ 28.9 µM)
